Reference: publication PMC8694140, “Synthesis and photobiological applications of naphthalimide–benzothiazole conjugates: cytotoxicity and topoisomerase IIα inhibition” (RSC Advances, 2021)
Read-outs that look alike come from different tables or passages of the source.

Assays:
[1] = biological target: T1, human serum albumin (HSA) (Homo sapiens, UniProt P02768); assay: Synchronous fluorescence spectroscopy of HSA; assay type: binding; conditions: Δλ = 15 nm, tyrosine residue
Excerpt: Synchronous fluorescence spectroscopy (SFS) is commonly used to evaluate the effect of ligand binding on the microenvironment of protein and its amino acids. It is usually observed that a change in polarity of the chromophore of protein causes deviation in the excitation wavelength of a particular amino acid residue.[48,49] This deviation can provide information about the change in confirmation of HSA on the binding of ligand. The SFS of HSA was noted using a fixed difference in wavelengths (Δλ) of 15 nm and 60 nm of synchronized recording of excitation and emission monochromators, which are characteristics of tyrosine and tryptophan amino acid residues, respectively.[50,51] […] The addition of compounds 12 and 13 produced a slight blue shift of about 4 nm at Δλ = 15 nm, corresponding to a tyrosine residue.
The synchronous fluorescence experiment of HSA was performed at a fixed amount of HSA and increasing concentrations of compounds 12 and 13. The spectra were recorded by taking the difference between the wavelengths of excitation and emission (Δλ = λemi − λexc) at 15 nm and 60 nm.

[2] = biological target: T1, human serum albumin (HSA); assay: HSA fluorescence quenching (Stern–Volmer, modified Stern–Volmer, van't Hoff); assay type: binding; conditions: for Kd: read-out: K b (binding constant, modified Stern–Volmer) (converted); for quenching of emission of HSA at 347 nm: HSA 10 μM, compound up to 33 μM, λex 280 nm; for ΔH of HSA binding / ΔS of HSA binding: van't Hoff plot, 298–318 K
Procedure: The binding of compounds to HSA can affect the fluorescence of these fluorophores.[34–36] […] Incremental addition of compounds 12 and 13 (33 μM) led to good quenching (90–95%) of emission of HSA at 347 nm (Fig. 5, S58, and S59 ^†), which indeed indicated the binding of compounds to HSA. Fluorescence quenching data have been analyzed using the Stern–Volmer equation eqn (3)[38] at three different temperatures, i.e., 298 K, […], and 318 K, where Stern–Volmer plots were obtained (Fig. S60 and S61 ^†). Good linearity of plots was observed having a correlation coefficient (R) ≥ 0.9396 throughout all the experiments. The values of the Stern–Volmer quenching constant (KSV), a measure of fluorescence quenching efficiency of the analyte, were calculated from these plots and are reported in Table 2. The fluorescence quenching mechanism, whether dynamic or static quenching, can be investigated using the dependency of KSV values on temperature. […] Thus, the detected quenching in fluorescence of HSA on the addition of compounds 12 and 13 appears as a result of complex formation between compound and HSA. […] Thus, in the present study, the static quenching phenomenon has occurred in the quenching process for represented HSA–compound systems.
To record the emission spectra, a fixed amount of HSA (10 μM) was titrated with increasing concentration of compounds 12 and 13 (33 μM) in phosphate buffer of pH 7.4 at 298 K, 308 K, and 318 K. All spectra were recorded in the range of 200–800 nm at excitation wavelength 280 nm and a constant slit width was used for excitation and emission throughout the experiments.
To determine the quenching constant, following Stern–Volmer eqn (3) was used.3 [drawing 3] where, F0 and F denote the emission intensity of HSA in free form and the presence of compounds 12 and 13, respectively. The plots of F0/F versus [compound] were used to determine the Stern–Volmer quenching constants (KSV) and bimolecular quenching constants (Kq).
Further to determine the binding constants (Kb) and the average number of binding sites (n), the following modified Stern–Volmer eqn (4) was used.4 [drawing 4] where F0 and F are the same as in eqn (3). The values of Kb and n were determined from intercept and slope, respectively, as log{(F0 − F)/F versus log[compound]} plots.
The thermodynamic parameters such as the change in enthalpy (ΔH) and change in entropy (ΔS) were determined by following the van't Hoff eqn (5):5 [drawing 5] R and T denote the gas constant and absolute temperature, respectively.
The change in free energy (ΔG) for various temperatures was determined by the following eqn (6):6 ΔG = ΔH − TΔS

[3] = biological target: T1, human serum albumin (HSA); assay: Energy transfer (FRET) between HSA and compounds; assay type: binding; conditions: compound acceptor; for E (efficiency of energy transfer) / R0 (critical distance, 50% efficiency of energy transfer): HSA donor
Excerpt: Eqn (8)–(10) are used to calculate the values of overlap integral of an emission spectrum of donor with the absorption spectrum of the acceptor (J), the critical distance (50% efficiency of energy transfer, R0), efficiency of energy transfer (E), and the distance among donor and acceptor (r). […] The calculated distance between donor and acceptor for compounds 12 and 13 was found less than 8 nm, and both compounds follow 0.5R0 < r < 1.5R0.
The energy transfer study was accomplished by recording the HSA emission spectrum at 280 nm excitation wavelength and the absorption spectra of compounds 12 and 13.
The following eqn (8)–(10) were used to determine the donor to acceptor energy transfer (E), the critical distance required for energy transfer by 50% (R0), overlap integral of the emission spectrum of donor with the absorption spectrum of the acceptor (J), and distance among the donor and the acceptor (r):[39,57]8 [drawing 6] In this equation, F0 and F denote the emission intensities of HSA in free form and the presence of compounds 12 and 13, respectively.9 R0^6 = 8.8 × 10^−25k^2η^−4ϕJwhere k^2, η, ϕ denote the orientation factor of dipoles, refracted index for used medium, and fluorescence quantum yield of the donor.10 [drawing 7] In this equation, F(λ) denotes the emission intensity for the free form of the donor at the wavelength λ, whereas ε(λ) denotes the molar absorption coefficient of acceptor at the wavelength λ.

[4] = tested on: A549 (lung) human cancer cell line; assay: MTT cytotoxicity assay, A549; assay type: cell-based; conditions: Homo sapiens, A549, 48 h
Procedure: Human malignant cell lines, i.e., MCF7 (breast), HeLa (cervix), and A549 (lung), as well as non-cancerous human cell line Hek293 (kidney), were cultured using the Ham's media or DMEM having 10% FBS, […] streptomycin, 100 U ml^−1 penicillin, and 50 mM glutamine. For seeding of cells, 96 well plates were used, maintaining the density of […] cells per well with the help of DMEM as a media having 10% FBS cells. Then, seeded cells were incubated in an incubator having a 5% CO2 supply at 37 °C. Compounds were added to the wells at 1, 10, and 100 μM concentrations, and cells were incubated for 48 h at 37 °C and then added 10 μl of MTT to each well prepared from 5 mg ml^−1 stock solution using 1 × PBS buffer and were incubated for 4 h at 37 °C in the dark. DMSO (100 μl) was used to dissolve the formazan crystals. To determine the concentration of formazan, the crystal absorbance difference was recorded at 570 nm. The percentage of relative cell toxicity was calculated by using the following eqn (1):1 [drawing 1]

T1 sequence (P02768 25-609): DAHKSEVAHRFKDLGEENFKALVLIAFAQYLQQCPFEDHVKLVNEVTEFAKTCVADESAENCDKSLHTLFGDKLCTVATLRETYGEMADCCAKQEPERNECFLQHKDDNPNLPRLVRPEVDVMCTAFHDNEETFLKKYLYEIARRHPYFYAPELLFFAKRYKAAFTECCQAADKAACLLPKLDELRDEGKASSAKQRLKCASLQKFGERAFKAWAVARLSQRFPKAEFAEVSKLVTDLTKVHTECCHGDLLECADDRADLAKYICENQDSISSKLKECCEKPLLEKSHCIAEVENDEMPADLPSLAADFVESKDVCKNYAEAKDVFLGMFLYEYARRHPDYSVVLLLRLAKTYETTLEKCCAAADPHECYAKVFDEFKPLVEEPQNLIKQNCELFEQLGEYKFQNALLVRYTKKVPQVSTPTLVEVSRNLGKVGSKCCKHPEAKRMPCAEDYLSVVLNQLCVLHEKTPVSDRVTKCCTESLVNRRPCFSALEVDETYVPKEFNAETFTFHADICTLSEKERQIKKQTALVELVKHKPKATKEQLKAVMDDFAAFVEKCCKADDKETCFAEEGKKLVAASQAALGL

blue shift of synchronous fluorescence of HSA [1]	K SV (Stern–Volmer quenching constant) ([2]; 298 K)	K q (bimolecular quenching rate constant) ([2]; 298 K)	n (average number of binding sites) ([2]; 298 K)	ΔG of HSA binding ([2]; 298 K)	Kd ([2]; 298 K)	Kd ([2]; 308 K)	K SV (Stern–Volmer quenching constant) ([2]; 318 K)	K q (bimolecular quenching rate constant) ([2]; 318 K)	n (average number of binding sites) ([2]; 318 K)	ΔG of HSA binding ([2]; 318 K)	Kd ([2]; 318 K)	quenching of emission of HSA at 347 nm [2]	ΔH of HSA binding [2]	ΔS of HSA binding [2]	E (efficiency of energy transfer) [3]	R0 (critical distance, 50% efficiency of energy transfer) [3]	J (overlap integral of donor emission with acceptor absorption) [3]	r (distance among donor and acceptor) [3]	Structure (SMILES)	IC50 [4]
about 4 nm	2.58 10^6 M^−1	2.58 10^14 M^−1 s^−1	1.17	-8.37 kJ/M	662 nM	2780 nM	0.30 10^6 M^−1	0.30 10^14 M^−1 s^−1	1.00	-7.49 kJ/M	6670 nM	90–95%	-21.41 kJ/M	−43.76 J M^−1 K^−1	0.93	0.591 nm	1.039 × 10^−18 cm^3 L mol^−1	0.377 nm	C#CCN1C(=O)c2cccc3c(-c4ccc5c(c4)c(-c4nc6ccccc6s4)cn5CC=C)ccc(c23)C1=O [Compound 13, 6-(1-Allyl-3-(benzo[d]thiazol-2-yl)-1H-indol-5-yl)-2-(prop-2-yn-1-yl)-1H-benzo[de]isoquinoline-1,3(2H)-dione]	0.31 ± 0.01 µM
about 4 nm	10.46 10^6 M^−1	10.46 10^14 M^−1 s^−1	1.32	-9.27 kJ/M	136 nM	658 nM	1.27 10^6 M^−1	1.27 10^14 M^−1 s^−1	1.30	-8.46 kJ/M	1190 nM	90–95%	-21.32 kJ/M	−40.44 J M^−1 K^−1	0.92	0.592 nm	1.04 × 10^−18 cm^3 L mol^−1	0.393 nm	C=CCn1cc(-c2nc3ccccc3s2)c2cc(-c3ccc4c5c(cccc35)C(=O)N(CCO)C4=O)ccc21 [Compound 12, 6-(1-Allyl-3-(benzo[d]thiazol-2-yl)-1H-indol-5-yl)-2-(2-hydroxyethyl)-1H-benzo[de]isoquinoline-1,3(2H)-dione]	0.14 ± 0.01 µM
